Consider 1 compound from US20080119462A1, “METHOD FOR TREATING VASCULAR HYPERPERMEABLE DISEASE” (Sucampo AG, priority 2003, published 2008).

Assay [1] addresses T1, Human plasma SSAO (Homo sapiens, UniProt Q16853).
T1 construct: The enzyme suspension prepared from blood plasma was pre-incubated with Compound A; from tissue; host or cells: human blood plasma
T1 sequence (Q16853 27-763 limits assumed): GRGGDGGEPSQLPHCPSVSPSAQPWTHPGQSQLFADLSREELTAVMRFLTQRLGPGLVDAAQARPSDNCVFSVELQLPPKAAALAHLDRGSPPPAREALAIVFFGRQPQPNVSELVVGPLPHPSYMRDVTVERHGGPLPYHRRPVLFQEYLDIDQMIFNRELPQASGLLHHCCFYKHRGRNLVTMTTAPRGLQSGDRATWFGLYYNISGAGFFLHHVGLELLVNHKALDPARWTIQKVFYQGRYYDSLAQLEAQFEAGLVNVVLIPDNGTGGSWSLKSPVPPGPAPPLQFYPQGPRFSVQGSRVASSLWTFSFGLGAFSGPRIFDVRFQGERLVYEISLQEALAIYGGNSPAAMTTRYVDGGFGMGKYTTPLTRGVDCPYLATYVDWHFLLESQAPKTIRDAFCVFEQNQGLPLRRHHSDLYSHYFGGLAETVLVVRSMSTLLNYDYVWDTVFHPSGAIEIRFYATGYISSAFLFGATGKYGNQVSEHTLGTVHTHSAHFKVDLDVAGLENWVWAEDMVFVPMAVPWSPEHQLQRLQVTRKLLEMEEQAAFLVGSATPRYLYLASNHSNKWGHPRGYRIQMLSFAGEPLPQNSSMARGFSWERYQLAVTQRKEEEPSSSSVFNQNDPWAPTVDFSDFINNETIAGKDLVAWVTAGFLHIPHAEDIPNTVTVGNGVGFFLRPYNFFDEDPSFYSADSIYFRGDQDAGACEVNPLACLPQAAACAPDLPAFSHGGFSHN
Nature of the assay: Radiochemical-enzyme assay of VAP-1 enzyme (SSAO) activity with 14C-benzylamine, human plasma. The assay is classed as biochemical. On the procedure: (§1) VAP-1 enzyme (SSAO) activity in both human and rat plasma was determined by a radiochemical-enzyme assay using ^14C-benzylamine as artificial substrate. The enzyme suspension prepared from blood plasma was pre-incubated with Compound A in 96-well microplate at room temperature for 30 min. The enzyme suspension was then incubated with ^14C-benzylamine (2×10^−5 mol/l final concentration) in a final volume of 50 μl at 37° C. for 1 hour. The enzyme reaction was terminated by adding 2 mol/l (50 μl) citric acid. The oxidized products were directly extracted into a 200 μl toluene scintillator, and its radioactivity was measured by a scintillation spectrometer. Monoamine oxidase (MAO) and diamine oxidase (DAO, histaminase) activities were also determined by similar method using ^14C-phenylethylamine and ^14C-putrescine as substrate, respectively. Cloned DAO from cDNA libraries was used in human DAO assay. Inhibition activity was expressed as IC50 (μmol/l) value.

In assay [2] the target is T2, Rat plasma SSAO (Rattus norvegicus, UniProt O08590).
T2 construct: The enzyme suspension prepared from blood plasma was pre-incubated with Compound A; from tissue; host or cells: rat blood plasma
T2 sequence (O08590 27-763 limits assumed): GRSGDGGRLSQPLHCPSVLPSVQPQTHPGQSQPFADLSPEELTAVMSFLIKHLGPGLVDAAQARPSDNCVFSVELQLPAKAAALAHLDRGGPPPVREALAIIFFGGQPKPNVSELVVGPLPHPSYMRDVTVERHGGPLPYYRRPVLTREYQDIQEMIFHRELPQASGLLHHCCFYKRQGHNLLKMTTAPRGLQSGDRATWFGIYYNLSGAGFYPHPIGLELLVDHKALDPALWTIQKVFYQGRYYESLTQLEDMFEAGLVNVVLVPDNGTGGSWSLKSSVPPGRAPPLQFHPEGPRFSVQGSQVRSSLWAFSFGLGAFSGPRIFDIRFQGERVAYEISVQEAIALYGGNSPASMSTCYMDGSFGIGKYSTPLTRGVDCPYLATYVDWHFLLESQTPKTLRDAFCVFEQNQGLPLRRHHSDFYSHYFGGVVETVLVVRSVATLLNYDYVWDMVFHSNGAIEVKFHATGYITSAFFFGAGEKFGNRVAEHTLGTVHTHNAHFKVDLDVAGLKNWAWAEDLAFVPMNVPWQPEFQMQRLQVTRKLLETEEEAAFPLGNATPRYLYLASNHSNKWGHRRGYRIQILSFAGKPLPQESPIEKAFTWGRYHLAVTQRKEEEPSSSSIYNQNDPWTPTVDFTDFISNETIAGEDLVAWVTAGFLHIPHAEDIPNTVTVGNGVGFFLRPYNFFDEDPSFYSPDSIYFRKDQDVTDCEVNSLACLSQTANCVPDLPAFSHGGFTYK
Nature of the assay: Radiochemical-enzyme assay of VAP-1 enzyme (SSAO) activity with 14C-benzylamine, rat plasma. The class given is biochemical. The protocol:
as §1

Assay [3] has as its system diabetic rats. The assay can be described thus: Ocular permeability in STZ diabetic rats (leakage of fluorescein into the vitreous). The following applies: 10 mg/kg, s.c. u.i.d., daily from 2 weeks after STZ for 2 weeks, mean ± S.E.M., 10 rats. The class given is in vivo, rat. On the procedure:
(§2) Diabetes in rats was induced with an intraperitoneal (i.p.) injection of 65 mg/ml/kg of streptozotocin (STZ) in 2 mmol/l citrate buffer (pH 4.5) after a 20-h fast. At the same time control rats were injected with an equal volume of 2 mmol/l citrate buffer. Plasma glucose level was checked by a calorimetric method. At day 3 of STZ treatment, the rats were diagnosed with diabetes showing a plasma glucose level of 350 mg/dl.
(§3) The treatment of Compound A was given daily from 2 weeks after STZ treatment for 2 weeks. At 24 hrs after final treatment of Compound A, the vascular permeability in oculus was investigated based on the leakage of dye into the vitreous 30 min after intravenous injection of fluorescein solution (40 mg/ml/kg). Permeability was expressed as vitreous/plasma ratio of fluorescein concentration measured by a fluorophotometer. At the same time, the plasma SSAO activity was checked by the radiochemical-enzyme assay using ^14C-benzylamine (2×10^−5 mol/l final concentration) as substrate.
In the same manner as in Example 2, the effect of various VAP-1 inhibitors on ocular permeability was determined in diabetic rats.

Assay [4] deals with T3, plasma SSAO (Rattus norvegicus, UniProt O08590).
T3 construct: The enzyme suspension prepared from blood plasma was pre-incubated with Compound A; from tissue; host or cells: rat blood plasma
T3 sequence (O08590 27-763 limits assumed): T2 sequence (O08590 27-763 limits assumed)
Nature of the assay: Plasma SSAO activity in STZ diabetic rats after treatment. The assay is classed as in vivo. The protocol: as §2, §3

As for `CC(=O)Nc1nc(CCc2ccc(NC(=N)N)cc2)cs1` [Compound A, N-{4-[2-(4-{[amino(imino)methyl]amino}phenyl)ethyl]-1,3-thiazol-2-yl}acetamide], the “Inhibition of the enzyme activity of human plasma SSAO (in words)” value in assay [1] is reported as “completely inhibited”. For the same compound, the IC50 in assay [1] (30 min pre-incubation, 14C-benzylamine 2×10^−5 mol/l, 37° C., 1 hour, read-out: Inhibitory effect (IC50 values) Human plasma SSAO) stood at 150 nM; in assay [2] (30 min pre-incubation, 14C-benzylamine 2×10^−5 mol/l, 37° C., 1 hour, read-out: Inhibitory effect (IC50 values) Rat plasma SSAO), 12 nM. The “Inhibition of the enzyme activity of rat plasma SSAO (in words)” value in assay [2] is recorded as “completely inhibited”. Further, the “Vitreous/Plasma Ratio of Fluorescein Concentration” value in assay [3] is listed as 5.39 ± 0.73 ×10^−3. Further, the “Effect on the increased plasma SSAO activity in diabetic rats (in words)” value in assay [4] (4 weeks after STZ treatment) is “dose-dependent inhibition”. In addition, in assay [4] (STZ diabetic rats, 4 weeks after STZ, Compound A treatment daily from 2 weeks after STZ, mean ± S.E.M., 10 rats), the “Plasma SSAO activity” value is 2.51 ± 0.26 pmol/min/mL.

By IC50 is commonly meant the midpoint of a concentration-inhibition curve.
